pIC50: −log10 of the molar value.
Experiments:
K-Ras-wildtype = K-Ras-wildtype (Homo sapiens, UniProt P01116); assay: K-Ras-wildtype activation by SOS1 (wild-type KRAS activation by SOS1cat assay, HTRF); type: biochemical; conditions: mean, SOS1cat mediated loading of wild-type GST-KRAS-GDP with fluorescent GTP analogue, read-out: K-Ras-wildtype activation by SOS1 IC50 - [mol/l] (mean)
Experimental: (§1) Preparation of test compound dilutions. A 100-fold concentrated solution of the test compound (50 nL) in DMSO was transferred to microtiter test plates (384 or 1,536 wells, Greiner Bio-One, Germany) using either a Hummingbird liquid handler (Digilab, MA, USA) or an Echo acoustic system (Labcyte, CA, USA). Plates were sealed with adhesive foil or heat-sealed and stored at −20 C until use. Serial dilutions of test compounds were prepared in 100% DMSO using a Precision Pipetting System (BioTek, USA).
(§2) Measurement and evaluation of inhibition data, calculation of IC50 values. Homogeneous time-resolved fluorescence (HTRF) was measured with a PHERAstar reader (BMG, Germany) using the HTRF module (excitation: 337 nm; emission 1: 620 nm, emission 2: 665 nm). The ratio of the emissions at 665 and 620 nm was used as the specific signal for further evaluation. The data were normalized using the controls: DMSO=0% inhibition, inhibition control wells with inhibitor control solution=100% inhibition. Compounds were tested in duplicates at up to 11 concentrations (e.g. 20 μM, 5.7 μM, 1.6 μM, 0.47 μM, 0.13 μM, 38 nM, 11 nM, 3.1 nM, 0.89 nM, 0.25 nM and 0.073 nM). IC50 values were calculated using a four-parameter fit, with a commercial software package (Genedata Screener, Switzerland).
(§3) KRAS^G12C activation by SOS1^cat assay (“On-assay”). This assay quantifies SOS1^cat mediated loading of KRAS^G12C-GDP with a fluorescent GTP analogue. Detection of successful loading was achieved by measuring resonance energy transfer from anti-GST-terbium (FRET donor) bound to GST-KRAS^G12C to the loaded fluorescent GTP analogue (FRET acceptor). The fluorescent GTP analogue EDA-GTP-DY-647P1 [2′/3′-O-(2-aminoethyl-carbamoyl)guanosine-5′-triphosphate labelled with DY-647P1 (Dyomics GmbH, Germany)] was synthesized by Jena Bioscience (Germany) and supplied as a 1 mM aqueous solution. A KRAS^G12C working solution was prepared in assay buffer [10 mM HEPES pH 7.4 (AppliChem), 150 mM NaCl (Sigma), 5 mM MgCl2 (Sigma), 1 mM DTT (Thermo Fisher), 0.05% BSA Fraction V pH 7.0 (ICN Biomedicals), 0.0025% (v/v) Igepal (Sigma)] containing GST-KRAS^G12C (final concentration in assay 50 nM) and anti-GST-terbium (Cisbio, France) (final concentration in assay 1 nM). A SOS1^cat working solution was prepared in assay buffer containing SOS1^cat (final concentration 10 nM) and EDA-GTP-DY-647P1 (final concentration 100 nM). An inhibitor control solution was prepared in assay buffer containing EDA-GTP-DY-647P1 (final concentration 100 nM) without SOS1^cat. All steps of the assay were performed at 20° C. A volume of 3 μL of the KRAS^G12C working solution was added to all wells of the test plate using a Multidrop dispenser (Thermo LabSystems). After 15 min, 2 μL of the SOS1^ct working solution was added to all wells, except for the inhibitor control solution wells. After 30 min incubation, HTRF was measured.
(§4) G12D and Wild-type KRAS activation by SOS1cat assays. These assays quantify human SOS1^cat mediated loading of wild-type GST-KRAS^WT-GDP or GST-KRAS^G12D-GDP with a fluorescent GTP analogue. The assay was performed similarly to the KRAS^G12C activation by SOS1^cat assay with the following differences: final concentration of SOS1^cat of 60 nM and final incubation time before measurement of 10 min for KRAS^G12D assay, final concentration of SOS1^cat of 20 nM and final incubation time before measurement of 15 min for wild-type KRAS assay, respectively. GST-KRAS^G12C was replaced by GST-KRAS^WT or GST-KRAS^G12D, respectively, also at 50 nM final concentration.
Wild-type KRAS activation by SOS1^cat assay. This assay quantifies human SOS1^cat mediated loading of wild-type GST-KRAS-GDP with a fluorescent GTP analogue. The assay was performed similarly to the KRAS^G12D activation by SOS1^cat assay just by replacement of GST-KRAS^G12D by wild-type GST-KRAS while concentrations of all components and incubation times were the same.

K-Ras G12D = K-Ras G12D (Homo sapiens, UniProt P01116, G12D); assay: K-Ras G12D activation by SOS1 (KRAS G12D activation by SOS1cat assay, HTRF); type: biochemical; conditions: mean, SOS1cat mediated loading of GST-KRAS G12D-GDP with fluorescent GTP analogue, read-out: K-Ras G12D activation by SOS1 IC50 - [mol/l] (mean)
K-Ras G12D, sequence (P01116 1-188 isoform P01116-2 G12D): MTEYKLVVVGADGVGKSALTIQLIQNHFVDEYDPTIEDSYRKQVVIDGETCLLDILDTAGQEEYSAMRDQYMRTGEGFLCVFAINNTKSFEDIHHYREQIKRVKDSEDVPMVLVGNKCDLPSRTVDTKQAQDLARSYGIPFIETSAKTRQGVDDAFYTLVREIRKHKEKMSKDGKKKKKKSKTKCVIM
Experimental: as §1, §2, §3, §4
KRAS^G12D activation by SOS1^cat assay (“On-assay”). This assay quantifies SOS1^cat mediated loading of KRAS^G12D-GDP with a fluorescent GTP analogue. Detection of successful loading was achieved by measuring resonance energy transfer from anti-GST-terbium (FRET donor) bound to GST-KRAS^G12D to the loaded fluorescent GTP analogue (FRET acceptor).

K-Ras-wildtype, sequence (P01116 1-188 isoform P01116-2): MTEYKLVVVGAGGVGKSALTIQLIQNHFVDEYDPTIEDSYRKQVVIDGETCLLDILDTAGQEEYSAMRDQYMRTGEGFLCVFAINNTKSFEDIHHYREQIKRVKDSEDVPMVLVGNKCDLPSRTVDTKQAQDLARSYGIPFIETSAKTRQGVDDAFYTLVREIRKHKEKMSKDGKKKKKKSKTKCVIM

SMILES | pIC50 (K-Ras-wildtype) | pIC50 (K-Ras G12D)
Cn1c(Oc2cc(O)cc3cccc(F)c23)nc2c(N3CC4CCC(C3)N4)nc(OCC34CCCN3CCC4)nc21 [Example 8, 4-({6-(3,8-diazabicyclo[3.2.1]octan-3-yl)-9-methyl-2-[(tetrahydro-1H-pyrrolizin-7a(5H)-yl)methoxy]-9H-purin-8-yl}oxy)-5-fluoronaphthalen-2-ol] | < 4.70 | < 4.70
Cn1c(Oc2cc(O)cc3ccccc23)nc2c(N3CC4CCC(C3)N4)nc(OCC34CCCN3CCC4)nc21 [Example 9, 4-({6-(3,8-diazabicyclo[3.2.1]octan-3-yl)-9-methyl-2-[(tetrahydro-1H-pyrrolizin-7a(5H)-yl)methoxy]-9H-purin-8-yl}oxy)naphthalen-2-ol] | < 4.70 | < 4.70
Oc1cc(Oc2nc3c(N4CC5CCC(C4)N5)nc(OCC45CCCN4CCC5)nc3[nH]2)c2ccccc2c1 [Example 10, 4-({6-(3,8-diazabicyclo[3.2.1]octan-3-yl)-2-[(tetrahydro-1H-pyrrolizin-7a(5H)-yl)methoxy]-9H-purin-8-yl}oxy)naphthalen-2-ol] | < 4.70 | < 4.70
Oc1cc(Oc2nc3c(N4CC5CCC(C4)N5)nc(OCC45CCCN4CCC5)nc3[nH]2)c2c(F)cccc2c1 [Example 11, 4-({6-(3,8-diazabicyclo[3.2.1]octan-3-yl)-2-[(tetrahydro-1H-pyrrolizin-7a(5H)-yl)methoxy]-9H-purin-8-yl}oxy)-5-fluoronaphthalen-2-ol] | < 4.70 | < 4.70
C#Cc1c(F)ccc2cc(O)cc(Oc3nc4c(N5CC6COCC(C5)N6)nc(OC[C@@]56CCCN5C[C@H](F)C6)nc4s3)c12 [Example 12, 5-ethynyl-6-fluoro-4-{[5-{[(2R,7aS)-2-fluorotetrahydro-1H-pyrrolizin-7a(5H)-yl]methoxy}-7-(3-oxa-7,9-diazabicyclo[3.3.1]nonan-7-yl)[1,3]thiazolo[5,4-d]pyrimidin-2-yl]oxy}naphthalen-2-ol] | 7.80 | 7.63
C#Cc1c(F)ccc2cc(O)cc(Oc3nc4c(N5CC6COCC(C5)N6)nc(OCC56CCCN5CCC6)nc4s3)c12 [Example 13, 5-ethynyl-6-fluoro-4-({7-(3-oxa-7,9-diazabicyclo[3.3.1]nonan-7-yl)-5-[(tetrahydro-1H-pyrrolizin-7a(5H)-yl)methoxy][1,3]thiazolo[5,4-d]pyrimidin-2-yl}oxy)naphthalen-2-ol] | 7.82 | 7.59
Oc1cc(Cc2nc3c(N4CC5CCC(C4)N5)nc(OCC45CCCN4CCC5)nc3s2)c2c(F)cccc2c1 [Example 14, 4-({7-(3,8-diazabicyclo[3.2.1]octan-3-yl)-5-[(tetrahydro-1H-pyrrolizin-7a(5H)-yl)methoxy][1,3]thiazolo[5,4-d]pyrimidin-2-yl}methyl)-5-fluoronaphthalen-2-ol] | < 4.70 | 6.20
Oc1cc(Oc2nc3c(N4CC5CCC(C4)N5)nc(OCC45CCCN4CCC5)nc3s2)c2c(Cl)cccc2c1 [Example 15, Formic acid-5-Chlor-4-{[7-(3,8-diazabicyclo[3.2.1]octan-3-yl)-5-(tetrahydro-1H-pyrrolizin-7a(5H)-ylmethoxy)[1,3]thiazolo[5,4-d]pyrimidin-2-yl]oxy}-2-naphthol (2:1)] | 5.97 | 7.45
C=Cc1c(F)ccc2cc(O)cc(Oc3nc4c(N5CC6CCC(C5)N6)nc(OC[C@@]56CCCN5C[C@H](F)C6)nc4s3)c12 [Example 17, 4-{[7-(3,8-diazabicyclo[3.2.1]octan-3-yl)-5-{[(2R,7aS)-2-fluorotetrahydro-1H-pyrrolizin-7a(5H)-yl]methoxy}[1,3]thiazolo[5,4-d]pyrimidin-2-yl]oxy}-5-ethenyl-6-fluoronaphthalen-2-ol] | 6.37 | 7.87
Cn1c(Oc2cc(O)cc3ccccc23)nc2nc(OCC34CCCN3CCC4)nc(N3CC4CCC(C3)N4)c21 [Example 18, 4-({6-(3,8-diazabicyclo[3.2.1]octan-3-yl)-7-methyl-2-[(tetrahydro-1H-pyrrolizin-7a(5H)-yl)methoxy]-7H-purin-8-yl}oxy)naphthalen-2-ol] | < 4.70 | 4.82

From patent US20250154170A1, “FUSED PYRIMIDINES AS KRAS INHIBITORS” (priority 2022, published 2025)
